Source: ChEMBL document CHEMBL4184135, “Waspergillamide A, a Nitro depsi-Tetrapeptide Diketopiperazine from an Australian Mud Dauber Wasp-Associated Aspergillus sp. (CMB-W031)” (J Nat Prod, 2017)
Active and inactive are the calls of the source.

Tests used:
[1] = test system: NCI-H460; assay: Cytotoxicity against human NCI-H460 cells assessed as inhibition of cell growth at 10 nM to 30 uM incubated for 72 hrs by MTT assay; assay type: functional, cell-based
[2] = test system: Staphylococcus aureus; assay: Antimicrobial activity against Staphylococcus aureus ATCC 25923 assessed as inhibition of microbial growth at 0.125 to 32 ug/mL incubated for 24 hrs by broth micro-dilution method; assay type: functional, organism-based
[3] = test system: Escherichia coli; assay: Antimicrobial activity against Escherichia coli ATCC 25922 assessed as inhibition of microbial growth at 0.125 to 32 ug/mL incubated for 24 hrs by broth micro-dilution method; assay type: functional, organism-based
[4] = test system: SW-620; assay: Cytotoxicity against human SW620 cells assessed as inhibition of cell growth at 10 nM to 30 uM incubated for 72 hrs by MTT assay; assay type: functional, cell-based
[5] = test system: Pseudomonas aeruginosa; assay: Antimicrobial activity against Pseudomonas aeruginosa ATCC 27853 assessed as inhibition of microbial growth at 0.125 to 32 ug/mL incubated for 24 hrs by broth micro-dilution method; assay type: functional, organism-based
[6] = test system: KB 3-1; assay: Cytotoxicity against human KB-3-1 cells assessed as inhibition of cell growth at 10 nM to 30 uM incubated for 72 hrs by MTT assay; assay type: functional, cell-based

Measured: growth inhibition (GI)

CC(C)/C=C1\NC(=O)[C@@H](C(C)(C)OC(=O)CNC(=O)c2ccc([N+](=O)[O-])cc2)NC1=O
inactive: all assays above
